From patent publication US20240254123A1, “PYRIDOPYRIMIDINE DERIVATIVES USEFUL AS WEE1 KINASE INHIBITORS” (APREA THERAPEUTICS, INC., priority 2021, published 2024)
“And” between values parts separate entries of the source, which are not always exact repeats. Equal entries are not always repeated.

Assays:
[1] = molecular target: T1, WEE1 (Homo sapiens, UniProt P30291); assay: Guava flow cytometry cell cycle assay (DNA content per cell, propidium iodide); type: cell-based; conditions: for WEE1 Guava MEC Guava MEC: single agent, unit assumed; for WEE1 Guava MEC with 20 nM GEM: in µM (unit assumed)
T1 construct: Drug treated cells are fixed and stained with propidium iodide (PI); endogenous in cells
T1 sequence (P30291 whole entry): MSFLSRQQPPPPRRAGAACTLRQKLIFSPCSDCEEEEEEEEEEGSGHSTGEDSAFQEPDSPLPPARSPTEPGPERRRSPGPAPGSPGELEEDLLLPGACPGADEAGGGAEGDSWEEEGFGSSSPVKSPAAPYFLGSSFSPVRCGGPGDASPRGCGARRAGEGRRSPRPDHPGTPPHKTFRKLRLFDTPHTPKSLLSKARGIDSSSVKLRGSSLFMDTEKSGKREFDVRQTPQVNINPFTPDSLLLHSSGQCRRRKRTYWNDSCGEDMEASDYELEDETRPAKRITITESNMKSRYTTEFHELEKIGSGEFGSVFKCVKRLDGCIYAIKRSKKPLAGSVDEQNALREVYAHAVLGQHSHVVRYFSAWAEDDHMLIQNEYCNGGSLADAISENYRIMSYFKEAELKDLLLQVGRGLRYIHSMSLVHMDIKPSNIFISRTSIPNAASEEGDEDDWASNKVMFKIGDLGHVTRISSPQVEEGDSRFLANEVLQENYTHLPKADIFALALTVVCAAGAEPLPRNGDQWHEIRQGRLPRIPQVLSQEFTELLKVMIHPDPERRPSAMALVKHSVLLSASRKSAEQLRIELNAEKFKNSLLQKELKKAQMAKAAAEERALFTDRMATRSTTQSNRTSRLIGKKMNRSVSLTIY
Source text: In this example, compounds described herein were subject to an assay that detects changes the phases of the cell cycle upon drug treatment, permitting the identification of drugs that affect cell proliferation in a specific manner. For example, problematic DNA replication causes the percentage of cells in S phase to increase. Thus, quantification of cells in S phase permits identification of drugs that cause defects in DNA replication. Similarly, drugs that selectively defects in progression through G2/M can also be identified. Moreover, synergy between assayed drugs and known cell cycle regulators can be determined, as exemplified by the effect of ATR inhibition when combined with agents that slow DNA replication, which causes replication fork collapse into DSBs and complete loss of DNA synthesis. Two novel drugs can also be combined to quantify synergistic effects on specific cell cycle phases.
The assay operates by the quantification of DNA content per cell by flow cytometry. Cells are assessed for effects on cell cycle using a Guava EasyCyte™ flow cytometer (Austin, TX). Drug treated cells are fixed and stained with propidium iodide (PI) and resuspended in phosphate-buffered saline containing the PI staining buffer. During flow cytometry, PI is excited at 528 nm and is detected in a 610/20 bandpass. Readout of the […] is optical density of DNA-staining dye. The assay generates a histogram showing count of cells by amount of DNA, which is an indicator of place in the cell cycle. This rapid assay detects relative changes in the cell cycle upon drug treatment upon comparison vehicle-treated and single-agent controls for detection of combinatorial interactions. See, Table 4.

[2] = molecular target: T1, WEE1; assay: in vitro enzymatic inhibitory activity, WEE1 kinase, 10-dose IC50 mode; type: biochemical; conditions: 10 μM ATP
Method: Compounds were tested against two kinases.
Data includes raw data, % Enzyme activity (relative to DMSO controls) and curve fits.

Structure (SMILES)	WEE1 Guava MEC Guava MEC [1] [µM]	WEE1 Guava MEC with 20 nM GEM [1]	IC50 [2] [µM]
O=c1c2cnc(Nc3cnn(C4CCNCC4)c3)nc2c(C2CC2)cn1-c1c(Cl)cccc1Cl [Compound P3, 8-cyclopropyl-6-(2,6-dichlorophenyl)-2-[[1-(4-piperidyl)pyrazol-4-yl]amino]pyrido[4,3-d]pyrimidin-5-one]	2.5	0.625	–
C=C(C)c1cn(-c2c(Cl)cccc2Cl)c(=O)c2cnc(Nc3cnn(C4CCNCC4)c3)nc12 [Compound P6, 6-(2,6-dichlorophenyl)-2-((1-(piperidin-4-yl)-1H-pyrazol-4-yl)amino)-8-(prop-1-en-2-yl)pyrido[4,3-d]pyrimidin-5(6H)-one]	5	1.25	–
NC1CCc2ccc(Nc3ncc4c(=O)n(-c5c(Cl)cccc5Cl)cc(Br)c4n3)cc21 (centres unmarked) [Compound P23, 2-[(3-aminoindan-5-yl)amino]-8-bromo-6-(2,6-dichlorophenyl)pyrido[4,3-d]pyrimidin-5-one]	5	2.5	–
CN(C)C1CCc2ccc(Nc3ncc4c(=O)n(-c5c(Cl)cccc5Cl)cc(Br)c4n3)cc21 (centres unmarked) [Compound P22, 8-bromo-6-(2,6-dichlorophenyl)-2-[[3-(dimethylamino)indan-5-yl]amino]pyrido[4,3-d]pyrimidin-5-one]	2.5	1.25	–
O=c1c2cnc(Nc3ccc4c(c3)CNCC43CC3)nc2c(Br)cn1-c1c(Cl)cccc1Cl [Compound P19, 8-bromo-6-(2,6-dichlorophenyl)-2-(spiro[2,3-dihydro-1H-isoquinoline-4,1′-cyclopropane]-7-ylamino)pyrido[4,3-d]pyrimidin-5-one]	0.313	0.156	–
CN1Cc2cc(Nc3ncc4c(=O)n(-c5c(Cl)cccc5Cl)cc(Br)c4n3)ccc2C2(CC2)C1 [Compound P20, 8-bromo-6-(2,6-dichlorophenyl)-2-[(2-methylspiro[1,3-dihydroisoquinoline-4,1′-cyclopropane]-7-yl)amino]pyrido[4,3-d]pyrimidin-5-one]	0.313	0.156	–
Cc1ccc(Cl)c(-n2cc(Br)c3nc(Nc4cnn(C5CCNCC5)c4)ncc3c2=O)c1Cl [Compound P14, 8-bromo-6-(2,6-dichloro-3-methyl-phenyl)-2-[[1-(4-piperidyl)pyrazol-4-yl]amino]pyrido[4,3-d]pyrimidin-5-one]	> 5	1.25	–
C=C(C)c1cn(-c2c(Cl)cccc2Cl)c(=O)c2cnc(Nc3cnn(C4CCN(C)CC4)c3)nc12 [Compound P7, 6-(2,6-dichlorophenyl)-8-isopropenyl-2-[[1-(1-methyl-4-piperidyl)pyrazol-4-yl]amino]pyrido[4,3-d]pyrimidin-5-one]	2.5	1.25	–
O=c1c2cnc(Nc3cnn(C4CCCNC4)c3)nc2c(Br)cn1-c1c(Cl)cccc1Cl (centres unmarked) [Compound P13, 8-bromo-6-(2,6-dichlorophenyl)-2-[[1-(3-piperidyl)pyrazol-4-yl]amino]pyrido[4,3-d]pyrimidin-5-one]	0.625	0.313	–
CN1CCc2ccc(Nc3ncc4c(=O)n(-c5c(Cl)cccc5Cl)cc(Br)c4n3)cc2C1 [Compound P11, 8-bromo-6-(2,6-dichlorophenyl)-2-[(2-methyl-3,4-dihydro-1H-isoquinolin-7-yl)amino]pyrido[4,3-d]pyrimidin-5-one]	0.313	0.156	0.031
CCc1cn(-c2c(Cl)cccc2Cl)c(=O)c2cnc(Nc3cnn(C4CCNCC4)c3)nc12 [Compound P4, 6-(2,6-dichlorophenyl)-8-ethyl-2-[[1-(4-piperidyl)pyrazol-4-yl]amino]pyrido[4,3-d]pyrimidin-5-one]	1.25	0.625	0.047
CN1CCN(c2ccc(Nc3ncc4c(=O)n(-c5c(Cl)cccc5Cl)cc(Br)c4n3)cc2)CC1 [Compound P21, 8-bromo-6-(2,6-dichlorophenyl)-2-[4-(4-methylpiperazin-1-yl)anilino]pyrido[4,3-d]pyrimidin-5-one]	0.625	0.313 and 0.625	–
Cc1cc(Cl)c(-n2cc(Br)c3nc(Nc4cnn(C5CCNCC5)c4)ncc3c2=O)c(Cl)c1 [Compound P16, 8-bromo-6-(2,6-dichloro-4-methyl-phenyl)-2-[[1-(4-piperidyl)pyrazol-4-yl]amino]pyrido[4,3-d]pyrimidin-5-one]	2.5	0.625	–
CN1CCCC(n2cc(Nc3ncc4c(=O)n(-c5c(Cl)cccc5Cl)cc(Br)c4n3)cn2)C1 (centres unmarked) [Compound P12, 8-bromo-6-(2,6-dichlorophenyl)-2-[[1-(1-methyl-3-piperidyl)pyrazol-4-yl]amino]pyrido[4,3-d]pyrimidin-5-one]	> 1.25	0.625	–
CC(C)c1cn(-c2c(Cl)cccc2Cl)c(=O)c2cnc(Nc3cnn(C4CCNCC4)c3)nc12 [Compound P8, 6-(2,6-dichlorophenyl)-8-isopropyl-2-[[1-(4-piperidyl)pyrazol-4-yl]amino]pyrido[4,3-d]pyrimidin-5-one]	5	1.25	–
O=c1c2cnc(Nc3ccc4c(c3)C(O)CC4)nc2c(Br)cn1-c1c(Cl)cccc1Cl (centres unmarked) [Compound P24, 8-bromo-6-(2,6-dichlorophenyl)-2-[(3-hydroxyindan-5-yl)amino]pyrido[4,3-d]pyrimidin-5-one]	5	1.25	–

Other lines, results leading:

WEE1 Guava MEC Guava MEC [1] [µM]	WEE1 Guava MEC with 20 nM GEM [1]	IC50 [2] [µM]	Structure (SMILES)
5	1.25	–	Cc1cn(-c2c(Cl)cccc2Cl)c(=O)c2cnc(Nc3cnn(C4CCN(C)CC4)c3)nc12 [Compound P2, 6-(2,6-dichlorophenyl)-8-methyl-2-[[1-(1-methyl-4-piperidyl)pyrazol-4-yl]amino]pyrido[4,3-d]pyrimidin-5-one]
2.5	0.625	–	Cc1cc(Cl)c(-n2cc(Br)c3nc(Nc4cnn(C5CCN(C)CC5)c4)ncc3c2=O)c(Cl)c1 [Compound P17, 8-bromo-6-(2,6-dichloro-4-methyl-phenyl)-2-[[1-(1-methyl-4-piperidyl)pyrazol-4-yl]amino]pyrido[4,3-d]pyrimidin-5-one]
5	1.25	–	Cc1ccc(Cl)c(-n2cc(Br)c3nc(Nc4cnn(C5CCN(C)CC5)c4)ncc3c2=O)c1Cl [Compound P15, 8-bromo-6-(2,6-dichloro-3-methyl-phenyl)-2-[[1-(1-methyl-4-piperidyl)pyrazol-4-yl]amino]pyrido[4,3-d]pyrimidin-5-one]
5	0.625	–	Cc1cccc(F)c1-n1cc(Br)c2nc(Nc3cnn(C4CCNCC4)c3)ncc2c1=O [Compound P25, 8-bromo-6-(2-fluoro-6-methyl-phenyl)-2-[[1-(4-piperidyl)pyrazol-4-yl]amino]pyrido[4,3-d]pyrimidin-5-one]
0.625	0.156	0.041	CN1CCC(n2cc(Nc3ncc4c(=O)n(-c5c(Cl)cccc5Cl)cc(Br)c4n3)cn2)CC1 [Compound P1, 8-bromo-6-(2,6-dichlorophenyl)-2-[[1-(1-methyl-4-piperidyl)pyrazol-4-yl]amino]pyrido[4,3-d]pyrimidin-5-one]
> 5	1.25	–	CCc1cn(-c2c(Cl)cccc2Cl)c(=O)c2cnc(Nc3cnn(C4CCN(C)CC4)c3)nc12 [Compound P5, 6-(2,6-dichlorophenyl)-8-ethyl-2-((1-(1-methylpiperidin-4-yl)-1H-pyrazol-4-yl)amino)pyrido[4,3-d]pyrimidin-5(6H)-one]
1.25	0.625	–	Cc1cccc(C)c1-n1cc(Br)c2nc(Nc3cnn(C4CCN(C)CC4)c3)ncc2c1=O [Compound P27, 8-bromo-6-(2,6-dimethylphenyl)-2-[[1-(1-methyl-4-piperidyl)pyrazol-4-yl]amino]pyrido[4,3-d]pyrimidin-5-one]
5	0.625	–	Cc1cccc(F)c1-n1cc(Br)c2nc(Nc3cnn(C4CCN(C)CC4)c3)ncc2c1=O [Compound P26, 8-bromo-6-(2-fluoro-6-methyl-phenyl)-2-[[1-(1-methyl-4-piperidyl)pyrazol-4-yl]amino]pyrido[4,3-d]pyrimidin-5-one]
5	1.25	–	CC(C)c1cn(-c2c(Cl)cccc2Cl)c(=O)c2cnc(Nc3cnn(C4CCN(C)CC4)c3)nc12 [Compound P9, 6-(2,6-dichlorophenyl)-8-isopropyl-2-[[1-(1-methyl-4-piperidyl)pyrazol-4-yl]amino]pyrido[4,3-d]pyrimidin-5-one]
